Data: publication PMC9369162, “Substrates of the Human Brain Proton-Organic Cation Antiporter and Comparison with Organic Cation Transporter 1 Activities” (International Journal of Molecular Sciences, 2022)
Where two headings read alike, the source gives them in different places.

Experiments:
[1] = molecular target: T1, OCT1 (Homo sapiens, UniProt O15245); assay: Cell uptake in OCT1 overexpressing HEK293 cells over empty-vector transfected cells; assay type: cell-based
T1 construct: expressed in transfected cells; host or cells: HEK293
T1 sequence (O15245 1-554): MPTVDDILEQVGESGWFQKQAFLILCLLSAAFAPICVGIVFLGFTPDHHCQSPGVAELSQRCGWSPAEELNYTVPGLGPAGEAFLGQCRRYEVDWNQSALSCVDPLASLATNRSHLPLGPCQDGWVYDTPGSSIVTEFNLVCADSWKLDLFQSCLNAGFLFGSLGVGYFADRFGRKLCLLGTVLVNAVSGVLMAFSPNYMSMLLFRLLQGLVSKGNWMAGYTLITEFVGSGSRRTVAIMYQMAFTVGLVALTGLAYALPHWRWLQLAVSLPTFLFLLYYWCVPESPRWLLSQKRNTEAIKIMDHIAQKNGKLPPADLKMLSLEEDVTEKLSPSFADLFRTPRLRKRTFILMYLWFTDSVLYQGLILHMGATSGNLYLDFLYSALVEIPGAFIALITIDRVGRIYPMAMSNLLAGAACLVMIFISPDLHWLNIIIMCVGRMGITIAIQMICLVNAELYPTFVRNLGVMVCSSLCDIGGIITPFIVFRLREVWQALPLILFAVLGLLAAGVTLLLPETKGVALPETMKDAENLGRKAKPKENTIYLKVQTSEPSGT

[2] = molecular target: T1, OCT1; design: method as in PMID 34093211; conditions: cited from earlier work
[3] = design: method as in PMID 19243716; conditions: published studies; cited from earlier work
[4] = cell uptake in OCT1 overexpressing cells over uptake in mock transfected cells

SMILES | OCT1 Ratio [1, 4] | OCT1 Ratio [1] | also measured
COc1cc(OC)c(C(=O)CCCN2CCCC2)c(OC)c1 [Buflomedil] | 1.00 |  | 
CN1CCC[C@@H]1Cc1c[nH]c2ccc(CCS(=O)(=O)c3ccccc3)cc12 [Eletriptan] | 1.20 |  | 
CNC[C@H](O)c1cccc(O)c1 [Phenylephrine] | 10.60 |  | 
Cc1nccn1CC1CCc2c(c3ccccc3n2C)C1=O (centres unmarked) [Ondansetron] | 1.00 |  | 
CNCC[C@H](Oc1cccc2ccccc12)c1cccs1 [Duloxetine] |  | 1.20 | 
CN(C)CCc1c[nH]c2ccc(C[C@H]3COC(=O)N3)cc12 [Zolmitriptan] | 10.00 |  | 
CNC1(c2ccccc2Cl)CCCCC1=O (centres unmarked) [Ketamine] |  | 1.10 | 
CN1[C@@H]2C[C@@H](OC(=O)[C@H](CO)c3ccccc3)C[C@H]1[C@@H]1O[C@@H]12 [Scopolamin] |  | 1.10 | 
CC(C)NCC(O)COc1cccc2ccccc12 (centres unmarked) [Propranolol] | 1.10 |  | 
COc1ccc2c3c1O[C@H]1C(=O)CC[C@H]4[C@@H](C2)N(C)CC[C@]314 [Hydrocodone] |  | 1.20 | 
Nc1nc2c(ncn2COCCO)c(=O)[nH]1 [Acyclovir] |  | 2.00 | 
CN[C@@H](C)[C@H](O)c1ccccc1 [Ephedrine] |  | 1.50 | 
CC[C@@H](C(N)=O)N1CCCC1=O [Levetiracetam] | 1.00 |  | 
CN(C)CCC=C1c2ccccc2COc2ccccc21 [Doxepin] | 1.30 |  | 
NNC(=O)c1ccncc1 [Isoniazid] | 0.94 |  | 
CN(C)CC(c1ccc(O)cc1)C1(O)CCCCC1 (centres unmarked) [Desmethylvenlafaxine] |  | 3.30 | 
CNCC1CCCCC1(O)c1cccc(OC)c1 (centres unmarked) [N-Desmethyltramadol] |  | 2.40 | 
Cn1c(=O)[nH]c2ncn(C)c2c1=O [Paraxanthine] | 1.00 |  | 
Fc1ccc([C@@H]2CCNC[C@H]2COc2ccc3c(c2)OCO3)cc1 [Paroxetin] |  | 1.17 | 
CC12CC3CC(C)(C1)CC(N)(C3)C2 [Memantine] | 1.10 |  | 
CC(C)(C)NCC(O)c1ccc(O)c(CO)n1 (centres unmarked) [Pirbuterol] |  | 80.90 | 
COc1ccc2c3c1O[C@H]1[C@@H](O)CC[C@H]4[C@@H](C2)N(C)CC[C@@]341 [Dihydrocodeine] |  | 0.80 | 
CNC(=C[N+](=O)[O-])NCCSCc1ccc(CN(C)C)o1 [Ranitidin] |  | 18.10 | 
CCOC(=O)[C@]1(c2ccccc2)CCC=C[C@H]1NC [Nortilidine] |  | 1.62 | 
CN(C)CCC=C1c2ccccc2CCc2ccccc21 [Amitriptyline] | 1.20 |  | OCT1 substrate status [2]: not OCT1 substrates

SMILES | OCT1 Ratio [1, 4] | OCT1 Ratio [1] | also measured
CCCC(=O)Nc1ccc(OCC(O)CNC(C)C)c(C(C)=O)c1 (centres unmarked) [Acebutolol] | 5.20 |  | 
CCOC(=O)c1cncn1[C@H](C)c1ccccc1 [Etomidate] |  | 0.94 | 
Cc1ncc(C[n+]2csc(CCO)c2C)c(N)n1 [Thiamine] | 11.60 |  | 
COc1cc(Cc2cnc(N)nc2N)cc(OC)c1OC [Trimethoprim] | 1.90 |  | 
CC(CCc1ccc(O)cc1)NCCc1ccc(O)c(O)c1 (centres unmarked) [Dobutamine] | 14.70 |  | 
NC(=O)c1cnccn1 [Pyrazinamide] | 0.80 |  | 
Cn1c(=O)c2[nH]cnc2n(C)c1=O [Theophyllin] |  | 1.00 | 
CCC1(c2cccc(O)c2)CCCCN(C)C1 (centres unmarked) [Meptazinol] |  | 3.20 | 
COc1cccc2c1C(=O)c1c(O)c3c(c(O)c1C2=O)C[C@@](O)(C(C)=O)C[C@@H]3O[C@H]1C[C@H](N)[C@H](O)[C@H](C)O1 [Daunorubicin] |  | 1.10 | 
CCOC(=O)C1(c2ccccc2)CCC=CC1N(C)C (centres unmarked) [Tilidine] |  | 1.30 | 
COC(=O)C(c1ccccc1)C1CCCCN1 (centres unmarked) [Methylphenidate] |  | 1.90 | 
CC(C)NCC(O)COc1ccc(COCCOC(C)C)cc1 (centres unmarked) [Bisoprolol] | 1.00 |  | 
N#CC(CCN1CCC(C(N)=O)(N2CCCCC2)CC1)(c1ccccc1)c1ccccc1 [Piritramide] |  | 1.18 | 
C[C@@H](O)[C@H]1C(=O)N2C(C(=O)O)=C(S[C@@H]3CN[C@H](C(=O)N(C)C)C3)[C@H](C)[C@H]12 [Meropenem] | 1.10 |  | 
COc1ccccc1N1CCN(CCCNc2cc(=O)n(C)c(=O)n2C)CC1 [Urapidil] | 1.10 |  | 
CC(C)NCC(O)COc1cccc2[nH]ccc12 (centres unmarked) [Pindolol] | 1.20 |  | 
N[C@@H]1C[C@H]1c1ccccc1 (racemic) [Tranylcypromine] |  | 1.60 | 
COc1ccc2c3c1O[C@H]1C(=O)CC[C@@]4(O)[C@@H](C2)N(C)CC[C@]314 [Oxycodone] |  | 0.90 | 
CCN(CC)CCNC(=O)c1cc(Cl)c(N)cc1OC [Metoclopramide] |  | 1.80 | 
C[N+](C)(C)CCO [Choline] | 1.50 |  | 
C[N+](C)(C)CC(=O)O [Betaine] | 1.00 |  | 
CC(C)(C)NCC(O)c1cc(Cl)c(N)c(Cl)c1 (centres unmarked) [Clenbuterol] |  | 1.10 | 
c1cnc2cc3c(cc2n1)[C@@H]1CNC[C@H]3C1 [varenicline] |  |  | variation of blood concentrations [3]: more than 100 fold
CN[C@@H]1CCc2[nH]c3ccc(C(N)=O)cc3c2C1 [Frovatriptan] | 33.10 |  | 
